# Measured values: US20240238242A1, “EGCG buccal tablet and use thereof” (priority 2023, published 2024)
# Where “and” joins values, the source holds several entries; their conditions need not be identical. Equal values may be shown once.
# System: Coronavirus (hCoV-229E)
# Experiment: Inactivation efficiency against coronavirus hCoV-229E strain (residual TCID50 on Huh-7 cells)
# Assay type: cell-based
# Conditions: for CPE test (virus replication in cell wells): wells 1-10; for average inactivation efficiency against virus: three experiments
compound,measurement,setting,value
"O=C(O[C@@H]1Cc2c(O)cc(O)cc2O[C@@H]1c1cc(O)c(O)c(O)c1)c1cc(O)c(O)c(O)c1 [EGCG, Epigallocatechin gallate]",CPE test (virus replication in cell wells),"0.2 mM EGCG + hCoV-229E virus, co-incubated 1 minute, first experiment, dilution factor 10^1",+
same,CPE test (virus replication in cell wells),"0.2 mM EGCG + hCoV-229E virus, co-incubated 1 minute, first experiment, dilution factor 10^2",+
same,CPE test (virus replication in cell wells),"0.2 mM EGCG + hCoV-229E virus, co-incubated 1 minute, first experiment, dilution factor 10^3",+
same,CPE test (virus replication in cell wells),"0.2 mM EGCG + hCoV-229E virus, co-incubated 1 minute, first experiment, dilution factor 10^4",+
same,CPE test (virus replication in cell wells),"0.2 mM EGCG + hCoV-229E virus, co-incubated 1 minute, first experiment, dilution factor 10^5",− and +
same,CPE test (virus replication in cell wells),"0.2 mM EGCG + hCoV-229E virus, co-incubated 1 minute, first experiment, dilution factor 10^6",−
same,CPE test (virus replication in cell wells),"0.2 mM EGCG + hCoV-229E virus, co-incubated 1 minute, first experiment, dilution factor 10^7",−
same,CPE test (virus replication in cell wells),"0.2 mM EGCG + hCoV-229E virus, co-incubated 1 minute, first experiment, dilution factor 10^8",−
same,CPE test (virus replication in the cell wells),"0.2 mM EGCG + virus, co-incubated 5 minute, first experiment, dilution factor 10^1, wells 1-10",+
same,CPE test (virus replication in the cell wells),"0.2 mM EGCG + virus, co-incubated 5 minute, first experiment, dilution factor 10^2, wells 1-10",+
same,CPE test (virus replication in the cell wells),"0.2 mM EGCG + virus, co-incubated 5 minute, first experiment, dilution factor 10^3, wells 1-10",+
same,CPE test (virus replication in the cell wells),"0.2 mM EGCG + virus, co-incubated 5 minute, first experiment, dilution factor 10^4, wells 1-10",+
same,CPE test (virus replication in the cell wells),"0.2 mM EGCG + virus, co-incubated 5 minute, first experiment, dilution factor 10^5, wells 1-10",+ and −
same,CPE test (virus replication in the cell wells),"0.2 mM EGCG + virus, co-incubated 5 minute, first experiment, dilution factor 10^6, wells 1-10",+ and −
same,CPE test (virus replication in the cell wells),"0.2 mM EGCG + virus, co-incubated 5 minute, first experiment, dilution factor 10^7, wells 1-10",−
same,CPE test (virus replication in the cell wells),"0.2 mM EGCG + virus, co-incubated 5 minute, first experiment, dilution factor 10^8, wells 1-10",−
same,CPE test (virus replication in the cell wells),"0.2 mM EGCG + virus, co-incubated 5 minute, second experiment, dilution factor 10^1, wells 1-10",+
same,CPE test (virus replication in the cell wells),"0.2 mM EGCG + virus, co-incubated 5 minute, second experiment, dilution factor 10^2, wells 1-10",+
same,CPE test (virus replication in the cell wells),"0.2 mM EGCG + virus, co-incubated 5 minute, second experiment, dilution factor 10^3, wells 1-10",+
same,CPE test (virus replication in the cell wells),"0.2 mM EGCG + virus, co-incubated 5 minute, second experiment, dilution factor 10^4, wells 1-10",+
same,CPE test (virus replication in the cell wells),"0.2 mM EGCG + virus, co-incubated 5 minute, second experiment, dilution factor 10^5, wells 1-10",+ and −
same,CPE test (virus replication in the cell wells),"0.2 mM EGCG + virus, co-incubated 5 minute, second experiment, dilution factor 10^6, wells 1-10",− and +
same,CPE test (virus replication in the cell wells),"0.2 mM EGCG + virus, co-incubated 5 minute, second experiment, dilution factor 10^7, wells 1-10",−
same,CPE test (virus replication in the cell wells),"0.2 mM EGCG + virus, co-incubated 5 minute, second experiment, dilution factor 10^8, wells 1-10",−
same,CPE test (virus replication in the cell wells),"0.2 mM EGCG + virus, co-incubated 5 minutes, dilution factor 10^1, wells 1-10, third experiment",+
same,CPE test (virus replication in the cell wells),"0.2 mM EGCG + virus, co-incubated 5 minutes, dilution factor 10^2, wells 1-10, third experiment",+
same,CPE test (virus replication in the cell wells),"0.2 mM EGCG + virus, co-incubated 5 minutes, dilution factor 10^3, wells 1-10, third experiment",+
same,CPE test (virus replication in the cell wells),"0.2 mM EGCG + virus, co-incubated 5 minutes, dilution factor 10^4, wells 1-10, third experiment",+ and −
same,CPE test (virus replication in the cell wells),"0.2 mM EGCG + virus, co-incubated 5 minutes, dilution factor 10^5, wells 1-10, third experiment",+
same,CPE test (virus replication in the cell wells),"0.2 mM EGCG + virus, co-incubated 5 minutes, dilution factor 10^6, wells 1-10, third experiment",− and +
same,CPE test (virus replication in the cell wells),"0.2 mM EGCG + virus, co-incubated 5 minutes, dilution factor 10^7, wells 1-10, third experiment",−
same,CPE test (virus replication in the cell wells),"0.2 mM EGCG + virus, co-incubated 5 minutes, dilution factor 10^8, wells 1-10, third experiment",−
same,CPE test (virus replication in cell wells),"0.2 mM EGCG + virus, hCoV-229E co-incubated 1 minute, second experiment, dilution factor 10^1",+
same,CPE test (virus replication in cell wells),"0.2 mM EGCG + virus, hCoV-229E co-incubated 1 minute, second experiment, dilution factor 10^2",+
same,CPE test (virus replication in cell wells),"0.2 mM EGCG + virus, hCoV-229E co-incubated 1 minute, second experiment, dilution factor 10^3",+
same,CPE test (virus replication in cell wells),"0.2 mM EGCG + virus, hCoV-229E co-incubated 1 minute, second experiment, dilution factor 10^4",+
same,CPE test (virus replication in cell wells),"0.2 mM EGCG + virus, hCoV-229E co-incubated 1 minute, second experiment, dilution factor 10^5",+ and −
same,CPE test (virus replication in cell wells),"0.2 mM EGCG + virus, hCoV-229E co-incubated 1 minute, second experiment, dilution factor 10^6",−
same,CPE test (virus replication in cell wells),"0.2 mM EGCG + virus, hCoV-229E co-incubated 1 minute, second experiment, dilution factor 10^7",−
same,CPE test (virus replication in cell wells),"0.2 mM EGCG + virus, hCoV-229E co-incubated 1 minute, second experiment, dilution factor 10^8",−
same,CPE test (virus replication in cell wells),"0.2 mM EGCG + virus, hCoV-229E co-incubated 1 minute, third experiment, dilution factor 10^1",+
same,CPE test (virus replication in cell wells),"0.2 mM EGCG + virus, hCoV-229E co-incubated 1 minute, third experiment, dilution factor 10^2",+
same,CPE test (virus replication in cell wells),"0.2 mM EGCG + virus, hCoV-229E co-incubated 1 minute, third experiment, dilution factor 10^3",+
same,CPE test (virus replication in cell wells),"0.2 mM EGCG + virus, hCoV-229E co-incubated 1 minute, third experiment, dilution factor 10^4",+
same,CPE test (virus replication in cell wells),"0.2 mM EGCG + virus, hCoV-229E co-incubated 1 minute, third experiment, dilution factor 10^5",− and +
same,CPE test (virus replication in cell wells),"0.2 mM EGCG + virus, hCoV-229E co-incubated 1 minute, third experiment, dilution factor 10^6",+ and −
same,CPE test (virus replication in cell wells),"0.2 mM EGCG + virus, hCoV-229E co-incubated 1 minute, third experiment, dilution factor 10^7",−
same,CPE test (virus replication in cell wells),"0.2 mM EGCG + virus, hCoV-229E co-incubated 1 minute, third experiment, dilution factor 10^8",−
same,inactivation efficiency against the virus,"0.2 mM EGCG, hCoV-229E virus, 1 minute, single experiment",36.90% and 20.57%
same,average inactivation efficiency against virus,"0.2 mM EGCG, hCoV-229E virus, 1 minute",31.46%
same,average inactivation efficiency against virus,"0.2 mM EGCG, hCoV-229E virus, 5 minutes",13.71%
same,CPE test (virus replication in cell wells),"1 mM EGCG + hCoV-229E virus, co-incubated 1 minute, first experiment, dilution factor 10^1",+
same,CPE test (virus replication in cell wells),"1 mM EGCG + hCoV-229E virus, co-incubated 1 minute, first experiment, dilution factor 10^2",+
same,CPE test (virus replication in cell wells),"1 mM EGCG + hCoV-229E virus, co-incubated 1 minute, first experiment, dilution factor 10^3",+
same,CPE test (virus replication in cell wells),"1 mM EGCG + hCoV-229E virus, co-incubated 1 minute, first experiment, dilution factor 10^4",+
same,CPE test (virus replication in cell wells),"1 mM EGCG + hCoV-229E virus, co-incubated 1 minute, first experiment, dilution factor 10^5",+ and −
same,CPE test (virus replication in cell wells),"1 mM EGCG + hCoV-229E virus, co-incubated 1 minute, first experiment, dilution factor 10^6",−
same,CPE test (virus replication in cell wells),"1 mM EGCG + hCoV-229E virus, co-incubated 1 minute, first experiment, dilution factor 10^7",−
same,CPE test (virus replication in cell wells),"1 mM EGCG + hCoV-229E virus, co-incubated 1 minute, first experiment, dilution factor 10^8",−
same,CPE test (virus replication in the cell wells),"1 mM EGCG + virus, co-incubated 5 minute, first experiment, dilution factor 10^1, wells 1-10",+
same,CPE test (virus replication in the cell wells),"1 mM EGCG + virus, co-incubated 5 minute, first experiment, dilution factor 10^2, wells 1-10",+
same,CPE test (virus replication in the cell wells),"1 mM EGCG + virus, co-incubated 5 minute, first experiment, dilution factor 10^3, wells 1-10",+
same,CPE test (virus replication in the cell wells),"1 mM EGCG + virus, co-incubated 5 minute, first experiment, dilution factor 10^4, wells 1-10",+
same,CPE test (virus replication in the cell wells),"1 mM EGCG + virus, co-incubated 5 minute, first experiment, dilution factor 10^5, wells 1-10",− and +
same,CPE test (virus replication in the cell wells),"1 mM EGCG + virus, co-incubated 5 minute, first experiment, dilution factor 10^6, wells 1-10",− and +
same,CPE test (virus replication in the cell wells),"1 mM EGCG + virus, co-incubated 5 minute, first experiment, dilution factor 10^7, wells 1-10",−
same,CPE test (virus replication in the cell wells),"1 mM EGCG + virus, co-incubated 5 minute, first experiment, dilution factor 10^8, wells 1-10",−
same,CPE test (virus replication in the cell wells),"1 mM EGCG + virus, co-incubated 5 minute, second experiment, dilution factor 10^1, wells 1-10",+
same,CPE test (virus replication in the cell wells),"1 mM EGCG + virus, co-incubated 5 minute, second experiment, dilution factor 10^2, wells 1-10",+
same,CPE test (virus replication in the cell wells),"1 mM EGCG + virus, co-incubated 5 minute, second experiment, dilution factor 10^3, wells 1-10",+
same,CPE test (virus replication in the cell wells),"1 mM EGCG + virus, co-incubated 5 minute, second experiment, dilution factor 10^4, wells 1-10",+
same,CPE test (virus replication in the cell wells),"1 mM EGCG + virus, co-incubated 5 minute, second experiment, dilution factor 10^5, wells 1-10",+ and −
same,CPE test (virus replication in the cell wells),"1 mM EGCG + virus, co-incubated 5 minute, second experiment, dilution factor 10^6, wells 1-10",−
same,CPE test (virus replication in the cell wells),"1 mM EGCG + virus, co-incubated 5 minute, second experiment, dilution factor 10^7, wells 1-10",−
